For test [1], the system named is MRSA 31. As to the kind of experiment: Antibacterial activity (MIC) against MRSA 31. The test is classed as cell-based, methicillin-resistant Staphylococcus aureus. Particulars: for MIC: Staphylococcus aureus, MRSA, read-out: antibacterial activities (MIC). An excerpt:
(§1) With respect to compounds (I) of the present invention obtained as described above, their general antibacterial activities and their antibacterial activities (MIC) against various methicillin-resistant strains of Staphylococcus aureus (methicillin-resistant Staphylococcus aureus: MRSA) were investigated. The results will be shown in Table 1, in which the test compounds are indicated by the numbers of their working examples to be described subsequently. Further, as the general antibacterial activities, those of Staphylococcus aureus 209P JC-1 and Escherichia coli NIHJ JC-2 were used.
(§2) (The unit for the figures in the table is µg/mℓ.)

Test [2] deals with MRSA 33. As to the kind of experiment: Antibacterial activity (MIC) against MRSA 33. The test is classed as cell-based, methicillin-resistant Staphylococcus aureus. The settings on record: for MIC: Staphylococcus aureus, MRSA, read-out: antibacterial activities (MIC).
From the text: as §1, §2

In test [3] the test system is Staphylococcus aureus 209P JC-1. As to the kind of experiment: General antibacterial activity (MIC) against Staphylococcus aureus 209P JC-1. The test is classed as cell-based. Particulars: for MIC: Staphylococcus aureus, read-out: antibacterial activities (MIC).
From the text: as §1, §2

The test system of test [4] is Escherichia coli NIHJ JC-2. The experiment in a line: General antibacterial activity (MIC) against Escherichia coli NIHJ JC-2. The test is classed as cell-based. The settings on record: for MIC: Escherichia coli; for antibacterial activities (MIC): NIHJ JC-2, 10^6 cfu/mℓ.
From the text: as §1, §2

[5] abbreviates: NIHJJC2, NIHJ JC-2, 10^6 cfu/mℓ, read-out: antibacterial activities (MIC).

The values that follow come from patent EP0774465A1, “Penem derivatives and antimicrobial agents containing the same” (priority 1995, dated 1997).

≈ marks a conversion by molar mass, not a printed value. Like-named read-outs stand apart in the source and are kept apart here.

Consider `C[C@H](O)[C@@H]1C(=O)N2C(C(=O)O)=C(SCCF)S[C@H]12` [Ex. 48, (5R,6R)-6-((S)-1-hydroxyethyl)-2-(2-fluoroethyl)thiopenem-3-carboxylic acid], for which the MIC in test [1] turned out to be 12.5 µg/mL (≈ 42.6 µM); in test [2] it was 12.5 µg/mL (≈ 42.6 µM); in test [3] (209P), 0.2 µg/mL (≈ 0.682 µM); in test [4] (NIHJJC2, read-out: antibacterial activities (MIC)) it was 0.1 µg/mL (≈ 0.341 µM).

With `CC(=N)N1CC[C@H](SC2=C(C(=O)O)N3C(=O)[C@@H]([C@H](C)O)[C@H]3S2)C1` [Ex. 89, (5R,6R)-6-((S)-1-hydroxyethyl)-2-[(S)-1-(1-iminoethyl)pyrrolidin-3-ylthio]penem-3-carboxylic acid], the MIC in test [1] (MRSA 31, 10^6 cfu/mℓ) is 6.25 µg/mL (≈ 17.5 µM); in test [2] (MRSA 33, 10^6 cfu/mℓ), 6.25 µg/mL (≈ 17.5 µM); in test [3] (209P JC-1, 10^6 cfu/mℓ), 0.1 µg/mL (≈ 0.28 µM); in test [4] (setting [5]), 0.39 µg/mL (≈ 1.09 µM).

For the molecule `CCSC1=C(C(=O)O)N2C(=O)[C@@H]([C@H](C)O)[C@H]2S1` [Ex. 41, (5R,6R)-6-((S)-1-hydroxyethyl)-2-ethylthiopenem-3-carboxylic acid], the MIC in test [1] (MRSA 31, 10^6 cfu/mℓ) amounted to 12.5 µg/mL (≈ 45.4 µM); in test [2] (MRSA 33, 10^6 cfu/mℓ), 12.5 µg/mL (≈ 45.4 µM); in test [3] (209P JC-1, 10^6 cfu/mℓ), 0.2 µg/mL (≈ 0.726 µM); in test [4] (setting [5]) it was 0.2 µg/mL (≈ 0.726 µM).

As for `C[C@H](O)[C@@H]1C(=O)N2C(C(=O)O)=C(SCc3ccc4ccccc4c3)S[C@H]12` [Ex. 76, (5R,6R)-6-((S)-1-hydroxyethyl)-2-(2-naphthyl)methylthiopenem-3-carboxylic acid], the minimum inhibitory concentration (MIC) in test [1] (MRSA 31, 10^6 cfu/mℓ) stood at 3.13 µg/mL (≈ 8.08 µM); in test [2] (MRSA 33, 10^6 cfu/mℓ), 3.13 µg/mL (≈ 8.08 µM); in test [3] (209P JC-1, 10^6 cfu/mℓ), 0.1 µg/mL (≈ 0.258 µM); in test [4] (setting [5]), 12.5 µg/mL (≈ 32.3 µM).

On to `CC(C)SC1=C(C(=O)O)N2C(=O)[C@@H]([C@H](C)O)[C@H]2S1` [Ex. 47, (5R,6R)-6-((S)-1-hydroxyethyl)-2-(1-methylethyl)thiopenem-3-carboxylic acid], for which the MIC in test [1] (MRSA 31, 10^6 cfu/mℓ) worked out at 12.5 µg/mL (≈ 43.2 µM); in test [2] (MRSA 33, 10^6 cfu/mℓ) it was 12.5 µg/mL (≈ 43.2 µM); in test [3] (209P JC-1, 10^6 cfu/mℓ), 0.2 µg/mL (≈ 0.691 µM); in test [4] (setting [5]) it was 0.2 µg/mL (≈ 0.691 µM).

For the molecule `C[C@H](O)[C@@H]1C(=O)N2C(C(=O)O)=C(S[C@H]3CCN(CC(=O)c4ccccc4)C3)S[C@H]12` [Ex. 88, (5R,6R)-6-((S)-1-hydroxyethyl)-2-[(S)-1-(2-oxo-2-phenylethyl)pyrrolidin-3-ylthio]penem-3-carboxylic acid], the MIC in test [1] (MRSA 31, 10^6 cfu/mℓ) came to 6.25 µg/mL (≈ 14.4 µM); in test [2] (MRSA 33, 10^6 cfu/mℓ), 6.25 µg/mL (≈ 14.4 µM); in test [3] (209P JC-1, 10^6 cfu/mℓ), 0.2 µg/mL (≈ 0.46 µM); in test [4] (setting [5]), 0.39 µg/mL (≈ 0.898 µM).

For `C[C@H](O)[C@@H]1C(=O)N2C(C(=O)O)=C(S[C@@H]3CN[C@H](CO)C3)S[C@H]12` [Ex. 94, (5R,6R)-6-((S)-1-hydroxyethyl)-2-[(2S,4S)-2-hydroxymethylpyrrolidin-4-ylthio]penem-3-carboxylic acid], the MIC in test [1] (MRSA 31, 10^6 cfu/mℓ) amounted to 6.25 µg/mL (≈ 18 µM); in test [2] (MRSA 33, 10^6 cfu/mℓ), 6.25 µg/mL (≈ 18 µM); in test [3] (209P JC-1, 10^6 cfu/mℓ) it was 0.1 µg/mL (≈ 0.289 µM); in test [4] (setting [5]), 0.2 µg/mL (≈ 0.577 µM).

Regarding `C[C@H](O)[C@@H]1C(=O)N2C(C(=O)O)=C(SCCc3ccccc3)S[C@H]12` [Ex. 43, (5R,6R)-6-((S)-1-hydroxyethyl)-2-phenethylthiopenem-3-carboxylic acid], the MIC in test [1] (MRSA 31, 10^6 cfu/mℓ) came out at 6.25 µg/mL (≈ 17.8 µM); in test [2] (MRSA 33, 10^6 cfu/mℓ), 6.25 µg/mL (≈ 17.8 µM); in test [3] (209P JC-1, 10^6 cfu/mℓ), 0.2 µg/mL (≈ 0.569 µM); in test [4] (setting [5]), 12.5 µg/mL (≈ 35.6 µM).

`C[C@H](O)[C@@H]1C(=O)N2C(C(=O)O)=C(SCC(=O)NCc3ccccc3)S[C@H]12` [Ex. 13, (5R,6R)-2-(N-benzylcarbamoylmethyl)thio-6-((S)-1-hydroxyethyl)penem-3-carboxylic acid]: the MIC in test [1] (MRSA 31, 10^6 cfu/mℓ) was 12.5 µg/mL (≈ 31.7 µM); in test [2] (MRSA 33, 10^6 cfu/mℓ), 12.5 µg/mL (≈ 31.7 µM); in test [3] (209P JC-1, 10^6 cfu/mℓ) it was 0.39 µg/mL (≈ 0.989 µM); in test [4] (setting [5]), 3.13 µg/mL (≈ 7.93 µM).

`CSC1=C(C(=O)O)N2C(=O)[C@@H]([C@H](C)O)[C@H]2S1` [Ex. 40, (5R,6R)-6-((S)-1-hydroxyethyl)-2-methylthiopenem-3-carboxylic acid]: the MIC in test [1] (MRSA 31, 10^6 cfu/mℓ) was found to be 12.5 µg/mL (≈ 47.8 µM); in test [2] (MRSA 33, 10^6 cfu/mℓ), 12.5 µg/mL (≈ 47.8 µM); in test [3] (209P JC-1, 10^6 cfu/mℓ), 0.39 µg/mL (≈ 1.49 µM); in test [4] (setting [5]), 0.39 µg/mL (≈ 1.49 µM).

For the molecule `C[C@H](F)[C@H]1C(=O)N2C(C(=O)O)=C(SC3CCN(c4ccccc4)C3)S[C@H]12` (single isomer, unassigned) [Ex. 107 (Isomer B)], the “antibacterial activities (MIC)” value in test [1] (MRSA 31, 10^6 cfu/mℓ) is 3.13 µg/mL; in test [2] (MRSA 33, 10^6 cfu/mℓ) it was 3.13 µg/mL; in test [3] (209P JC-1, 10^6 cfu/mℓ), 0.1 µg/mL; in test [4], 50 µg/mL.

As to `C[C@H](O)[C@@H]1C(=O)N2C(C(=O)O)=C(SCc3ccccc3)S[C@H]12` [Ex. 42, (5R,6R)-6-((S)-1-hydroxyethyl)-2-benzylthiopenem-3-carboxylic acid], the MIC in test [1] (MRSA 31, 10^6 cfu/mℓ) was 3.13 µg/mL (≈ 9.28 µM); in test [2] (MRSA 33, 10^6 cfu/mℓ) it was 3.13 µg/mL (≈ 9.28 µM); in test [3] (209P JC-1, 10^6 cfu/mℓ), 0.1 µg/mL (≈ 0.296 µM); in test [4] (setting [5]), 6.25 µg/mL (≈ 18.5 µM).

For the molecule `C[C@H](O)[C@@H]1C(=O)N2C(C(=O)O)=C(SC3Cc4ccccc4C3)S[C@H]12` [Ex. 71, (5R,6R)-6-((S)-1-hydroxyethyl)-2-(2-indanyl)thiopenem-3-carboxylic acid], the MIC in test [1] (MRSA 31, 10^6 cfu/mℓ) stood at 3.13 µg/mL (≈ 8.61 µM); in test [2] (MRSA 33, 10^6 cfu/mℓ), 1.56 µg/mL (≈ 4.29 µM); in test [3] (209P JC-1, 10^6 cfu/mℓ), 0.05 µg/mL (≈ 0.138 µM); in test [4] (setting [5]), 6.25 µg/mL (≈ 17.2 µM).

As to `C[C@H](O)[C@@H]1C(=O)N2C(C(=O)O)=C(SC3CCc4ccccc43)S[C@H]12` (stereo partly drawn) [Ex. 81, (5R,6R)-6-((S)-1-hydroxyethyl)-2-(1-indanyl)thiopenem-3-carboxylic acid], the MIC in test [1] (MRSA 31, 10^6 cfu/mℓ) was determined as 3.13 µg/mL (≈ 8.61 µM); in test [2] (MRSA 33, 10^6 cfu/mℓ) it was 3.13 µg/mL (≈ 8.61 µM); in test [3] (209P JC-1, 10^6 cfu/mℓ), 0.1 µg/mL (≈ 0.275 µM); in test [4] (setting [5]), 6.25 µg/mL (≈ 17.2 µM).

In the case of `C[C@H](O)[C@@H]1C(=O)N2C(C(=O)O)=C(S[C@H]3CCN(CCF)C3)S[C@H]12` [Ex. 79, (5R,6R)-6-((S)-l-hydroxyethyl)-2-[(S)-1-(2-fluoroethyl)pyrrolidin-3-yl]thiopenem-3-carboxylic acid], the MIC was 6.25 µg/mL (≈ 17.2 µM) in test [1] (MRSA 31, 10^6 cfu/mℓ); 6.25 µg/mL (≈ 17.2 µM) in test [2] (MRSA 33, 10^6 cfu/mℓ); 0.1 µg/mL (≈ 0.276 µM) in test [3] (209P JC-1, 10^6 cfu/mℓ); 0.1 µg/mL (≈ 0.276 µM) in test [4] (setting [5]).

`C[C@H](F)[C@H]1C(=O)N2C(C(=O)O)=C(SC3CCN(c4ccccc4)C3)S[C@H]12` (single isomer, unassigned) [Ex. 107 (Isomer A)]: the “antibacterial activities (MIC)” value in test [1] (MRSA 31, 10^6 cfu/mℓ) came to 1.56 µg/mL; in test [2] (MRSA 33, 10^6 cfu/mℓ), 1.56 µg/mL. Besides, the MIC is 0.1 µg/mL (≈ 0.253 µM) in test [3] (209P JC-1, 10^6 cfu/mℓ) and > 25 µg/mL in test [4] (setting [5]).

Regarding `C[C@H](O)[C@@H]1C(=O)N2C(C(=O)O)=C(SCCc3ccccn3)S[C@H]12` [Ex. 73, (5R,6R)-6-((S)-1-hydroxyethyl)-2-[2-(2-pyridyl)ethyl]thiopenem-3-carboxylic acid], the MIC worked out at 6.25 µg/mL (≈ 17.7 µM) in test [1] (MRSA 31, 10^6 cfu/mℓ); 6.25 µg/mL (≈ 17.7 µM) in test [2] (MRSA 33, 10^6 cfu/mℓ); 0.05 µg/mL (≈ 0.142 µM) in test [3] (209P JC-1, 10^6 cfu/mℓ); 0.78 µg/mL (≈ 2.21 µM) in test [4] (setting [5]).

For the molecule “(5R,6R)-6-((S)-1-fluoroethyl)-2-methylthiopenem-3-carboxylic acid [Ex. 99]”, the “antibacterial activities (MIC)” value in test [1] (MRSA 31, 10^6 cfu/mℓ) was determined as 6.25 µg/mL; in test [2] (MRSA 33, 10^6 cfu/mℓ), 6.25 µg/mL; in test [3] (209P JC-1, 10^6 cfu/mℓ) it was 0.1 µg/mL; in test [4], 0.78 µg/mL.

As to `CC(=N)N1CC[C@H](SC2=C(C(=O)O)N3C(=O)[C@H]([C@H](C)F)[C@H]3S2)C1` [Ex. 106, (5R,6R)-6-((S)-1-fluoroethyl)-2-[(S)-1-(1-iminoethyl)pyrrolidin-3-ylthio]penem-3-carboxylic acid], the MIC stood at 3.13 µg/mL (≈ 8.71 µM) in test [1] (MRSA 31, 10^6 cfu/mℓ); 3.13 µg/mL (≈ 8.71 µM) in test [2] (MRSA 33, 10^6 cfu/mℓ); 0.05 µg/mL (≈ 0.139 µM) in test [3] (209P JC-1, 10^6 cfu/mℓ); 1.56 µg/mL (≈ 4.34 µM) in test [4] (setting [5]).

As to `CCCSC1=C(C(=O)O)N2C(=O)[C@@H]([C@H](C)O)[C@H]2S1` [Ex. 46, (5R,6R)-6-((S)-1-hydroxyethyl)-2-propylthiopenem-3-carboxylic acid], the MIC was determined as 12.5 µg/mL (≈ 43.2 µM) in test [1] (MRSA 31, 10^6 cfu/mℓ); 12.5 µg/mL (≈ 43.2 µM) in test [2] (MRSA 33, 10^6 cfu/mℓ); 0.39 µg/mL (≈ 1.35 µM) in test [3] (209P JC-1, 10^6 cfu/mℓ); 0.78 µg/mL (≈ 2.7 µM) in test [4] (setting [5]).

What is called MIC is the smallest concentration in the dilution series that meets the test's criterion for growth inhibition.
